pIC50: −log10 of the molar value. Several values for one entry are separate records, joined by “and”; a condition that tells them apart may be missing. Equal values may be shown once.
Experiments:
[1] = Microsomal stability, human; assay type: in vitro ADME; conditions: human liver microsomes, 3 μM compound
Method: A 10 mM stock solution of compound in DMSO was diluted 1000 fold in a 182 mM phosphate buffer pH7.4 in a 96 deep well plate (Greiner, Cat no. 780285) and pre-incubated at 37° C. 40 μL of deionised water was added to a well of a polypropylene Matrix 2D barcode labelled storage tube (Thermo Scientific) and pre-incubated at 37° C.
A Glucose-6-phophate-dehydrogenase (G6PDH) working stock solution was prepared in 182 mM phosphate buffer pH7.4 and placed on ice before use. A co-factor containing MgCl2, glucose-6-phosphate and NADP+ was prepared in deionised water and placed on ice before use.
A final working solution containing liver microsomes (Xenotech) of a species of interest (human, mouse, rat, dog), previously described G6PDH and co-factors was prepared and this mix was incubated for no longer than 20 minutes at room temperature.
30 μL of the pre-heated compound dilution was added to 40 μL of pre-heated water in the Matrix tubes and 30 μL, of the microsomal mix was added. Final reaction concentrations were 3 μM compound, 1 mg microsomes, 0.4 U/mL GDPDH, 3.3 mM MgCl2, 3.3 mM glucose-6-phosphate and 1.3 mM NADP+.
To measure percentage remaining of compound at time zero MeOH or ACN was added (1:1) to the well before adding the microsomal mix. The plates were sealed with Matrix Sepra Seals™ (Matrix, Cat. No. 4464) and shaken for a few seconds ensure complete mixing of all components.
The samples which were not stopped are incubated at 37° C., 300 rpm and after 1 hr of incubation the reaction was stopped with MeOH or ACN (1:1).
After stopping the reaction the samples were mixed and placed on ice for 30 min to precipitate the proteins. The plates were then centrifuged 30 min at 1200 rcf at 4° C. and the supernatant was transferred to a 96 v-bottom PP plate (Greiner, 651201) for analysis on LCMS.
These plates were sealed with sealing mats (MA96RD-04S) of www.kinesis.co.uk and samples were measured at room temperature on LCMS (ZQ 1525 from Waters) under optimized conditions using Quanoptimize to determine the appropriate mass of the parent molecule.
The samples were analyzed on LCMS with a flow rate of 1 mL/min. Solvent A was 15 mM ammonia and solvent B was methanol or acetonitrile, depending on the stop solution used. The samples were run under positive ion spray on an XBridge C18 […] (2.1×30 mm) column, from Waters.
Peak area from the parent compound at time 0 was considered to be 100% remaining. The percentage remaining after 1 hr incubation was calculated from time 0 and was calculated as the percentage remaining. The solubility of the compound in the final test concentration in buffer is inspected by microscope and results are reported.
The data on microsomal stability are expressed as a percentage of the total amount of compound remaining after 60 min.

[2] = Plasma protein binding (equilibrium dialysis), human; assay type: in vitro ADME; conditions: 10 μM, 4 hrs at 37° C.
Method: A 10 mM stock solution of the compound in DMSO was diluted with a factor 5 in DMSO. This solution was further diluted in freshly thawed human, rat, mouse or dog plasma (BioReclamation INC) with a final concentration of 10 μM and final DMSO concentration of 0.5% (5.5 μL in 1094.5 μL plasma in a PP-Masterblock 96 well (Greiner, Cat no. 780285))
A Pierce Red Device plate with inserts (ThermoScientific, Cat no. 89809) was prepared and filled with 750 μL PBS in the buffer chamber and 500 μL of the spiked plasma in the plasma chamber. The plate was incubated for 4 hrs at 37° C. while shaking at 230 rpm. After incubation, 120 μL of both chambers was transferred to 360 μL acetonitrile in a 96-well round bottom, PP deep-well plates (Nunc, Cat no. 278743) and sealed with an aluminum foil lid. The samples were mixed and placed on ice for 30 min. This plate was then centrifuged 30 min at 1200 rcf at 4° C. and the supernatant was transferred to a 96 v-bottom PP plate (Greiner, 651201) for analysis on LCMS.
The plate is sealed with sealing mats (MA96RD-04S) of www.kinesis.co.uk and samples are measured at room temperature on LCMS (ZQ 1525 from Waters) under optimized conditions using Quanoptimize to determine the appropriate mass of the molecule.
The samples were analyzed on LCMS with a flow rate of […]. Solvent A was 15 mM ammonia and solvent B was acetonitrile. The sample was run under positive ion spray on an XBridge C18 3.5 μM (2.1×30 mm) column, from Waters. The solvent gradient has a total run time of 2 minutes and ranges from 5% B to 95% B.
Peak area from the compound in the buffer chamber and the plasma chamber are considered to be 100% compound.

JAK2 = JAK2 (Homo sapiens (Human), UniProt O60674); assay: JAK2 inhibition assay; assay type: biochemical
JAK2, sequence (O60674 808-1132): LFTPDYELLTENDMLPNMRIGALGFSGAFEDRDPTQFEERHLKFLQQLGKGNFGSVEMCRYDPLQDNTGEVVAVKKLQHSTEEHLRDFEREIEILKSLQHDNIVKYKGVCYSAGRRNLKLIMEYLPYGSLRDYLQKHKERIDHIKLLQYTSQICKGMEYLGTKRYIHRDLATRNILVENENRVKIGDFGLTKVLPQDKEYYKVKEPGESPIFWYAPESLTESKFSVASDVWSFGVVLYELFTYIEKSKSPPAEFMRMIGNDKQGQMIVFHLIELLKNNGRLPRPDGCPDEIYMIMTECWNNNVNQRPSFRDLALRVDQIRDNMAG
Method: After 90 min at 30° C., reactions were stopped by adding of 25 μL/well of 150 mM phosphoric acid. […] Plates were washed 6 times with 300 μL per well of a 75 mM phosphoric acid solution and the bottom of the plates was sealed. 40 μL/well of Microscint-20 was added, the top of the plates was sealed and readout was performed using the Topcount (Perkin Elmer). Kinase activity was calculated by subtracting counts per minute (cpm) obtained in the presence of a positive control inhibitor (10 μM staurosporine) from cpm obtained in the presence of vehicle. The ability of a test compound to inhibit this activity was determined as:
Percentage inhibition=((cpm determined for sample with test compound present−cpm determined for sample with positive control inhibitor)divided by(cpm determined in the presence of vehicle−cpm determined for sample with positive control inhibitor))*100.
Dose dilution series were prepared for the compounds enabling the testing of dose-response effects in the JAK2 assay and the calculation of the IC50 for each compound.

Row | percentage of compound remaining after 60 min, Human [1] [%] | percentage bound to plasma, Human [2] [%] | pIC50 (JAK2) | Compound
1 | 87.2 | 76.4 |  | O=C(Nc1nc2cccc(-c3ccc(CN4CCS(=O)(=O)CC4)cc3)n2n1)C1CC1 [Compound 1, Cyclopropanecarboxylic acid {5-[4-(1,1-dioxo-1-thiomorpholin-4-ylmethyl)-phenyl]-[1,2,4]triazolo [1,5-a]pyridin-2-yl}-amide]
2 | 73 | 70.5 | 7.41 and 6.82 and 6.73 | O=C(Nc1nc2cccc(-c3ccc(CN4CCOCC4)cc3)n2n1)C1CC1 [Compound 2, N-(5-(4-(morpholinomethyl)phenyl)-[1,2,4]triazolo[1,5-a]pyridin-2-yl)cyclopropanecarboxamide]
3 | 102 |  | 7.18 | O=C(Nc1nc2cccc(-c3ccc(C(=O)N4CCS(=O)(=O)CC4)cc3)n2n1)C1CC1 [Compound 10, Cyclopropanecarboxylic acid {5-[4-(1,1-dioxo-1-thiomorpholine-4-carbonyl)-phenyl]-[1,2,4]triazolo [1,5-a]pyridin-2-yl}-amide]
4 | 51 | 91.25 | 7.81 | O=C(Nc1nc2cccc(-c3ccc(CN4CCC(F)(F)CC4)cc3)n2n1)C1CC1 [Compound 11, Cyclopropanecarboxylic acid {5-[4-(4,4-difluoro-piperidin-1-ylmethyl)-phenyl]-[1,2,4]triazolo [1,5-a]pyridin-2-yl}-amide]

— patent publication US8563545B2, “Compound useful for the treatment of degenerative and inflammatory diseases” (Galapagos NV, priority 2009, dated 2013)
